Results as given in US6696303B2, “Identifying substances using cells that express p75NTR” (Trustees of Boston University, priority 1996, dated 2004).

Legend:
Bax = Bax level in melanocytes by Western blot with anti-Bax antibody; assay type: cell-based, human; details: for increased Bax level as compared to the 40-1 peptide: 25 μM, four days; for Bax induction: 25 uM, within 4 days, vs 40-1 control fragment or irrelevant protein
Procedure: To investigate the mechanism of β-amyloid-mediated melanocyte death, Bax levels in melanocytes treated with 25 uM of 1-40 or 25-35 β-amyloid peptides was examined. Within 4 days of treatment, Bax was induced 3 fold in melanocytes stimulated either with the β-amyloid 1-40 or 25-35 fragments as compared to melanocytes treated with the 40-1 control fragment or an irrelevant HPLC purified protein of similar size.
Melanocytes were maintained as above. Four days after addition of 25 μM of β-amyloid fragments 1-40, 40-1 or 25-35; or 25 μM of HPLC-purified bovine corticotropin releasing factor (CRF) (Bachem Calif.) (MW 4.7 kD) as an additional negative control, cells were extracted in RIPA buffer (50 mM Tris-HCl, 0.15 M NaCl, 0.5% sodium deoxycholate, 1% TRITON®X-100) in the presence of 1 μ/ml aprotinin and 75 μg/ml phenylmethylsulfonyl fluoride (PMSF), sonicated for 1-3 seconds and centrifuged. 40 μg of protein per lane were separated on 12% SDS/PAGE and blotted onto nitrocellulose paper (overnight, 25V). To verify equal loading a duplicate 13% SDS/PAGE was performed and stained with Coomasie Blue R250 stain. Blots were incubated with anti-Bax antibody (1:1000 dilution) (primary antibody), followed by horseradish peroxidase-conjugated goat anti-rabbit IgG (secondary antibody) (1:500 dilution) (Bio-Rad Laboratories, Hercules, Calif.). Bound antibodies were detected using enhanced chemiluminescence kit (Amersham Corp.). Autoradiograms were scanned into a Macintosh II is computer using the Of to TM program (Light source Computer Images, Inc.). Scan analysis was performed with manual definition of bands using Scan Analysis TM 68000 program (Biosoft, Cambridge, UK).

p75^NTR [1] = assay: UV irradiated melanocytes treated with anti p75NTR antisense oligonucleotides; assay type: cell-based
Procedure: Melanocytes were UV irradiated with 25 mJ/cm^2 and then supplemented either with 10 μM anti p75^NTR anti sense phosphothioate oligonucleotides ([…] SEQ ID NO.: 5) directed against the 3′ end of the p75^NTR coding region, or the same concentration of sense oligonucleotides as a negative control.
Immunohistochemical analysis confirmed that p75^NTR was not expressed in cells treated with anti-p75^NTR anti-sense oligonucleotides, but was expressed in the sense treated cells. Within 24 hours after irradiation; the following was observed the following were observed: […]

normal human melanocytes = assay: melanocyte cell yield and morphology after β-amyloid supplementation; assay type: cell-based
Procedure: To determine the effect of β-amyloid on normal human melanocytes, cultures were supplemented with increasing concentrations (0.025-50 uM) of HPLC-purified β-amyloid fragment corresponding to amino acids 1-40. A peptide containing the first 40 amino acids synthesized in reverse order (40-1) was used as a negative control.
Melanocytes were maintained in serum free Medium 199 (Gibco BRL Gaithersburg, Md.) supplemented with epidermal growth factor (10 ng/ml) (Collaborative Research), insulin (10 μg/ml) (Sigma), triiodothyronine (10^−9 M) (Collaborative Research), transferrin (10 μg/ml) (Sigma), hydrocortisone (1.4×10^−6 M) (Calbiochem), cholera toxin (10^−9 M) (Calbiochem) and basic fibroblast growth factor (basic FGF) (10 ng/ml) (Collaborative Research). Two days after plating cells were supplemented with increasing concentrations of β-amyloid 1-40 or the control peptide 40-1 (0-50 μM) (Bachem Calif., Torrance, Calif.).

melanocytes = assay: NGF supplementation of β-amyloid-treated melanocytes; assay type: cell-based, human; details: for percent of live cells (spread): 48 hours
Procedure: Melanocytes were maintained as above in hormone supplemented medium lacking hydrocortisone. Cells were supplemented with 25 μM of β-amyloid 1-40 in the presence of 50 ng/ml NGS or diluent.
Photographs of representative fields were obtained and the percent of the live cells (spread) was determined 48 hours after addition of β-amyloid and NFG or β-amyloid and diluent.
At least 400 cells were counted in each condition.

p75^NTR 3T3 cells = assay: cell yield of p75NTR 3T3 cells with β-amyloid and cyclic peptide; assay type: cell-based
Procedure: p75^NTR 3T3 cells were maintained in serum free medium supplemented with 200 nM β-amyloid 1-40, 200 nM cyclic peptide […], (SEQ ID NO: 4) 20 nM β-amyloid 1-40 and 200 nM cyclic peptide or diluent alone.

p75^NTR [2] = target: T1, p75^NTR (Homo sapiens, UniProt P08138); assay: cross linking of 125I β-amyloid 1-40 and immunoprecipitation with anti p75NTR antibodies; assay type: binding; details: p75NTR-NIH 3T3 cells, disuccinimidyl suberate cross linking
T1 construct: expressed in transfected cells; host or cells: NIH 3T3 fibroblasts, permanently transfected (p75NTR-NIH 3T3 cells)
T1 sequence (P08138 29-427): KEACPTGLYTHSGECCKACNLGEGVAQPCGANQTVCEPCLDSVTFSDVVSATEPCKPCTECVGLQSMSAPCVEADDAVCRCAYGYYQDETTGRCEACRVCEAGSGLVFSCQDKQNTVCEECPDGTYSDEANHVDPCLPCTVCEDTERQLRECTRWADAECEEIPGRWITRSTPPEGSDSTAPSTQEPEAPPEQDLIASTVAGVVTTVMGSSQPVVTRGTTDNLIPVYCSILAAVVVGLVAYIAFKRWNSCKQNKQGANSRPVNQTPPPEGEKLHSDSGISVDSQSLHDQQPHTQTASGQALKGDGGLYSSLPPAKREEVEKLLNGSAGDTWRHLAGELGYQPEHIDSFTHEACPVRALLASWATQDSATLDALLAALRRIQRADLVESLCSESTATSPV
Procedure: p75^NTR-NIH 3T3 cells were maintain in DMEM supplemented with 10% FBS in the presence of penicillin (45 ng/ml), streptomycin (68 ng/ml), and hygromycin B (17.5 ng/ml). At 80% confluence cells were lifted from the dish with EDTA and incubated in suspension with 5 uCi ^125I labeled β-amyloid 1-40 at 4° C. for 1 hour in DMEM. After incubation, 1 mM of disuccinimidyl suberate was added for 30 minutes. Following centrifugation cells were lysed with RIPA buffer (50 mM Tris HCl, pH 8.0, 0.15 M NaCl 0.5% sodium deoxycholate 4, 5 mM MgC2, 1% TRITON®X-100, 1 mM phenylmethylsulfonylfluoride, and 1 μg/ml aprotinin), sonicated for 1-3 seconds and immunoprecipitated with anti p75^NTR antibodies (mouse monoclonal IgGl, Cedarlane Laboratories Ltd., Ontario, Canada) or mouse IgG as control for 16 hours at 4° C. in the presence of 15 ul of protein G plus protein A agarose and 1M NaCl adjusted to pH 8.0. After several washes with 20 mM Tris HCl, pH 8.0, 1M NaCl, 5mM MgCl2, 0.2% TRITON®X-100 and 1 mM PMSF, immunoprecipitates were separated over 8% PAGE and subjected to autoradiography. A band of appropriate molecular weight was present only in lysates immunoprecipitated with anti p75^NTR antibodies and not lysates immunoprecipitated with irrelevant mouse IgG.

p75^NTR [3] = target: T1, p75^NTR; assay: competition for 125I labeled β-amyloid 1-40 binding on p75NTR-NIH 3T3 cells; details: NGF 100 ng/ml; 2 hours at 4° C.
From the text: After rinsing in PBS, cells were lysed in 1N NaOH and equal amounts of protein from cell lysates were subject to counting.
[…] (SEQ ID NO: 4). Lysates from 1.5×10^5 cells were subjected to counting.

p75^NTR [4] = target: T1, p75^NTR; assay: receptor affinity for p75NTR; assay type: binding
p75^NTR [5] = target: T1, p75^NTR; details: lysine at position 34 replaced by alanine; vs NGF; cited from earlier work
[6] = ≧25 μM, compared to control cultures
[7] = NGF supplementation, preliminary data

With “25-35: β-amyloid peptide fragment of amino acid residues 25-35 (GSNKGAIIGLM)” the “increased Bax level as compared to the 40-1 peptide” value (Bax) was 160% and the Bax induction (Bax) was 3 fold.
With “CTCCCACTCGTCATTCGAC (all phosphorothioate, sugars by position and methylation of C not given here) [anti-sense oligonucleotides, anti p75NTR anti sense phosphothioate oligonucleotides directed against the 3′ end of the p75NTR coding region]” the “p75NTR expression (immunohistochemical analysis)” value (p75^NTR [1]; 10 μM oligonucleotide, melanocytes UV irradiated with 25 mJ/cm^2) was “not expressed”, the “appearance of cells within 24 hours after irradiation” value (“appearance of cells within 24 hours” below) (p75^NTR [1]; diluent instead of NGF) was “appear as healthy as cells provided NGF lacking p75^NTR” and the “appearance of cells within 24 hours” value (p75^NTR [1]; with 50 ng/ml NGF) was “do not appear as healthy or numerous as cells expressing both receptors in the presence of NGF”.
For “β-amyloid 1-40: HPLC-purified β-amyloid fragment corresponding to amino acids 1-40”, the “effect on cell yield” value (normal human melanocytes; 0-50 μM, three to five days after addition) was “dose dependent decrease of cell yield”, the “decrease in cell yield” value (normal human melanocytes; 25-30 uM, compared to cell yield before β-amyloid addition (100%)) was 59%±17% and the dendrite outgrowth (normal human melanocytes; low concentrations (≦1 μM)) was “extensive outgrowth of dendrites”. The “decrease of melanocyte yield” value (normal human melanocytes; within 3-5 days, total of four experiments) was > 50%, the “proportion of apoptotic cells” value (normal human melanocytes; [6]) was “significantly increases the proportion of apoptotic cells” and the “increased Bax level as compared to the 40-1 peptide” value (Bax) was 270%. The Bax induction (Bax) was 3 fold, the “upregulation of Bax protein expression” value (Bax; [6]) was “approximately three fold” and the “percent of live cells (spread)” value (melanocytes; 25 μM β-amyloid 1-40 and diluent) was 77±8.5%. The “cell yield compared to all other cultures” value (p75^NTR 3T3 cells; 200 nM, serum free medium, up to 120 hours) was “prominent decrease of cell yield”, the “reduction of cell yields” value (p75^NTR 3T3 cells; β-amyloid 200 nM) was ~60% and the “binding to p75NTR (autoradiogram of immunoprecipitates)” value (p75^NTR [2]) was “protein band of 75-80 kD in size only in lysates immunoprecipitated with anti p75^NTR antibodies”.
For “NGF: Nerve growth factor, physiologic ligand for p75NTR”, the “percent of live cells (spread)” value (melanocytes; 25 μM β-amyloid 1-40 and 50 ng/ml NGF) was 96±1.4%, the “cell yields of β-amyloid-supplemented melanocytes” value (melanocytes; NGF added, within 3-5 days) was “enhanced cell yields” and the Bcl-2 levels (melanocytes; [7]) was “increases Bcl-2 levels”. For the same substance, the “β-amyloid-induced Bax upregulation” value (melanocytes; [7]) was “decreases the β-amyloid-induced Bax upregulation”, the “maximum inhibition of 125I labeled β-amyloid binding” value (p75^NTR [3]) was 38% and the “appearance of cells within 24 hours” value (p75^NTR [1]; with 50 ng/ml NGF) was “appear healthy”. For the same substance, the “higher receptor affinity than β-amyloid” value (p75^NTR [4]) was 2-3 fold.
In the case of “mutant NGF: NGF in which lysine (K) at position 34 is replaced by alanine (A)”, the “lower affinity of binding to p75NTR” value (p75^NTR [5]) is given as 50%.
